Results taken from US10766879B2, “Pyrimidine derivatives as kinase inhibitors and their therapeutical applications” (NantBioScience, Inc., priority 2015, dated 2020).

Legend:
Kato III = assay: CellTiterblue viability, 72 hr, Kato III; format: cell-based; details: Homo sapiens, Kato III cells
Description: (§1) A number of studies were performed to analyze the consequences of tyrosine kinase inhibition in cell lines. To do this, 1000 cells are seeded in 27 μl/well in 384-well microplates, which are then placed in a humidified CO2 incubator at 37° C. overnight. The next day, 3 μl/well of 10× concentrated drug is added and the plates are returned to the incubator for 72 hr. After 72 hr incubation, plates are removed and […] CellTiterblue (Promega) viability reagent is added. Plates are returned to the incubator for 3 hr, after which it is fluorescence measurements are read on the Victor X3 plate reader (Perkin Elmer). Data are analyzed using Excel (Microsoft), and GI50 values are determined using Prism (Graphpad).

RT112 = assay: CellTiterblue viability, 72 hr, RT112; format: cell-based; details: Homo sapiens, RT-112, RT112 cells
Description: as §1

AN3_CA = assay: CellTiterblue viability, 72 hr, AN3_CA; format: cell-based; details: Homo sapiens, AN3-CA, AN3_CA cells
Description: as §1

Tie2 = target: T1, Tie2 (Homo sapiens, UniProt Q02763); assay: KinaseProfiler kinase inhibition assay, Tie2; format: biochemical; details: 1 μM compound
T1 construct: purchased Millipore (KinaseProfiler Service)

Ret kinase = target: T2, Ret kinase (Homo sapiens, UniProt P07949); assay: KinaseProfiler kinase inhibition assay, Ret; format: biochemical; details: 1 μM compound
T2 construct: purchased Millipore (KinaseProfiler Service)
T2 sequence (P07949 29-1114): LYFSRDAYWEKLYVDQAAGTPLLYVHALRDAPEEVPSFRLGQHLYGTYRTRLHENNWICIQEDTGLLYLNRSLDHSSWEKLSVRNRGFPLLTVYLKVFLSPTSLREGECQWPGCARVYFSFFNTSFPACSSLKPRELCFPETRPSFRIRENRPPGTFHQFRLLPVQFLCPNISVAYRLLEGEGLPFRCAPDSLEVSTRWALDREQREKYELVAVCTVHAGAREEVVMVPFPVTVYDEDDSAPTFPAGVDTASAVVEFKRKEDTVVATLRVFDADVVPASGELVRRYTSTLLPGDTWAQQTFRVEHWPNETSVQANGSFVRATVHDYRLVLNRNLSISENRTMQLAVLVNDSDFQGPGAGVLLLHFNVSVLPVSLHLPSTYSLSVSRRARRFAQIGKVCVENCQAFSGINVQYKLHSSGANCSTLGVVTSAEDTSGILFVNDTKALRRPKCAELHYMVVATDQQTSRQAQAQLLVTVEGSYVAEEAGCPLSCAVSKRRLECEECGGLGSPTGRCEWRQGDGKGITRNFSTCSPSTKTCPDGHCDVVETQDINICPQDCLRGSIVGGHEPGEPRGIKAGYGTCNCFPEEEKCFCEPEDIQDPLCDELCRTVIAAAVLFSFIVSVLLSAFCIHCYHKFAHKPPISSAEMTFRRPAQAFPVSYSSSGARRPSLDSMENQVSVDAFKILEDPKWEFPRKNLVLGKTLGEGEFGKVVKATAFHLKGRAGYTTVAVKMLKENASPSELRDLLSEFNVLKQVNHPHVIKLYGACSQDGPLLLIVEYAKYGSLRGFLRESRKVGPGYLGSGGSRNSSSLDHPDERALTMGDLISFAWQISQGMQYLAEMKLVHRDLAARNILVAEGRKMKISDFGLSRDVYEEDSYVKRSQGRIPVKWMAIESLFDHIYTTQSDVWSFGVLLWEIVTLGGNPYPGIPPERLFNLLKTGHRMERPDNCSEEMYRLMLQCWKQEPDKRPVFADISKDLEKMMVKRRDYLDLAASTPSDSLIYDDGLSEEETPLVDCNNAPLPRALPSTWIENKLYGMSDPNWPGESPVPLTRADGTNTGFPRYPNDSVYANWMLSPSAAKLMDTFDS

c-Src kinase = target: T3, c-Src kinase (Homo sapiens, UniProt P12931); assay: KinaseProfiler kinase inhibition assay, c-Src; format: biochemical; details: 1 μM compound; read-out: % Inhibition @1 μM cSrc
T3 construct: purchased Millipore (KinaseProfiler Service)

Abl kinase = target: T4, Abl kinase (Homo sapiens, UniProt P00519); assay: KinaseProfiler kinase inhibition assay, Abl; format: biochemical; details: 1 μM compound
T4 construct: purchased Millipore (KinaseProfiler Service)
T4 sequence (P00519 whole entry): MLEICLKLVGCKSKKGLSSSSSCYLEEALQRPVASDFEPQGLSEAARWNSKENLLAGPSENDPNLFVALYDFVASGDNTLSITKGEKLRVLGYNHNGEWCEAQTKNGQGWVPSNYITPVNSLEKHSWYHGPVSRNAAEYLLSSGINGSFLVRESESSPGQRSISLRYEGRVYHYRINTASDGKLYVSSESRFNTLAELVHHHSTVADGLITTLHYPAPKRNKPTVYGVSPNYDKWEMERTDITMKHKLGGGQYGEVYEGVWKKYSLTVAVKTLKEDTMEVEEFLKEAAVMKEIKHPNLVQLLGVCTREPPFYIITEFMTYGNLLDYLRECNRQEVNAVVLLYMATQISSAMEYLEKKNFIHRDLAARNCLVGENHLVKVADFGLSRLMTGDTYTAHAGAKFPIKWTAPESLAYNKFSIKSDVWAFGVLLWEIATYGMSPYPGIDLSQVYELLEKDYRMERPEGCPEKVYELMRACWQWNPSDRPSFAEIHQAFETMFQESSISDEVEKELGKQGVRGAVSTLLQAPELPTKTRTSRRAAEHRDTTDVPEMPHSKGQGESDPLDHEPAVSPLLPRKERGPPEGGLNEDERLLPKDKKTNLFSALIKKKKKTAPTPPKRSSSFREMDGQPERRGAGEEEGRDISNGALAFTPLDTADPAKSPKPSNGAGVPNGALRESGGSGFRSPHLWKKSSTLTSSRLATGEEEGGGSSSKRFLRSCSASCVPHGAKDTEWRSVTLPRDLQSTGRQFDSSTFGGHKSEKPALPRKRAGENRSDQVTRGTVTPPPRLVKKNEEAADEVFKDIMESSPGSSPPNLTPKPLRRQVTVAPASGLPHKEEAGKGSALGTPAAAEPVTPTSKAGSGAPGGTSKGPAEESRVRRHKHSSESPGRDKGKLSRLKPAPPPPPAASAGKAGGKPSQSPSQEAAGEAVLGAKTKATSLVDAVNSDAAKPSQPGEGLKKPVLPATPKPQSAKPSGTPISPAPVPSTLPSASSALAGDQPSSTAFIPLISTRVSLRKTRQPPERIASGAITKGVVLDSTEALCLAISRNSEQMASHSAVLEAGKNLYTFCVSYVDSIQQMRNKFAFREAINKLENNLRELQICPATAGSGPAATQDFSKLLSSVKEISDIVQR

KG1a = assay: CellTiterblue viability, 72 hr, KG1a; format: cell-based; details: Homo sapiens, KG-1a, KG1a cells
Description: as §1

KDR kinase = target: T5, KDR kinase (Homo sapiens, UniProt P35968); assay: KinaseProfiler kinase inhibition assay, KDR; format: biochemical; details: 1 μM compound
T5 construct: purchased Millipore (KinaseProfiler Service)
T5 sequence (P35968 20-1356): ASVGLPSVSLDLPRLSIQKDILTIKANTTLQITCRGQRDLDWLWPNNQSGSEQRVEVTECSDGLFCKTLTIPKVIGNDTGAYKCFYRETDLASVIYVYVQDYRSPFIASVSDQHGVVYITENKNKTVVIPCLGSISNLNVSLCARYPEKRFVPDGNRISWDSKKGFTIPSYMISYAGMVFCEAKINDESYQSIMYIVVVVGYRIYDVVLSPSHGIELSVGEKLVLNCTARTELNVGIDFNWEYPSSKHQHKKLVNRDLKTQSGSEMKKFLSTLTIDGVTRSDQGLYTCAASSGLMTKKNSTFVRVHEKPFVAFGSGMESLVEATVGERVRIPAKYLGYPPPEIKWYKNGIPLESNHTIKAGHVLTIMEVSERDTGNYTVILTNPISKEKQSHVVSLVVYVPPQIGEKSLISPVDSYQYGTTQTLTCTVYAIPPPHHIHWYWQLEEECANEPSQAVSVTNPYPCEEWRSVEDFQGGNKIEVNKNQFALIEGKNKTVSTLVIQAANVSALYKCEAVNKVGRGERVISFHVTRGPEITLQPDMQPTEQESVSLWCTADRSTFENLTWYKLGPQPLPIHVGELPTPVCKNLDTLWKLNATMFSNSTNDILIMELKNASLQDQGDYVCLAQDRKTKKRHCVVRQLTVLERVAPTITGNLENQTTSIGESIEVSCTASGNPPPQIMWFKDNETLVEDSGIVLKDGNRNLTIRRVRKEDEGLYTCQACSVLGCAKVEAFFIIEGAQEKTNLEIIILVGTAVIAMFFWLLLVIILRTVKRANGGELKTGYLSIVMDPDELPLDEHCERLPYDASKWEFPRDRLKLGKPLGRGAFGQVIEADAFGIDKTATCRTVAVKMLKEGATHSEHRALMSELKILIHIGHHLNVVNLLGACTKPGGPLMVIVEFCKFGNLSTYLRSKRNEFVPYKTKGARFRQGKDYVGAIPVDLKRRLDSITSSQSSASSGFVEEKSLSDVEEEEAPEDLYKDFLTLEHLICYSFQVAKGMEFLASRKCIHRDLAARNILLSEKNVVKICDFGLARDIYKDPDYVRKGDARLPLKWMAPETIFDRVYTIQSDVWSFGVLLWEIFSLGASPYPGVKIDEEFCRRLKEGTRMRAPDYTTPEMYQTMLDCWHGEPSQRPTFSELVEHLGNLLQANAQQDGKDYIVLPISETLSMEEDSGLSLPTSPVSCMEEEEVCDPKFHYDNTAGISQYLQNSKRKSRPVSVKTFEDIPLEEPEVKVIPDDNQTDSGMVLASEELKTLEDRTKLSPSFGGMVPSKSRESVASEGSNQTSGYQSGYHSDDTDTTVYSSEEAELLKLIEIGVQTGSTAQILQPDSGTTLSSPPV

FGFR1 kinase = target: T6, FGFR1 kinase (Homo sapiens, UniProt P11362); assay: KinaseProfiler kinase inhibition assay, FGFR1; format: biochemical; details: 1 μM compound
T6 construct: purchased Millipore (KinaseProfiler Service)

Alk kinase = target: T7, Alk kinase (Homo sapiens, UniProt Q9UM73); assay: KinaseProfiler kinase inhibition assay, Alk; format: biochemical; details: 1 μM compound
T7 construct: purchased Millipore (KinaseProfiler Service)
T7 sequence (Q9UM73 19-1620): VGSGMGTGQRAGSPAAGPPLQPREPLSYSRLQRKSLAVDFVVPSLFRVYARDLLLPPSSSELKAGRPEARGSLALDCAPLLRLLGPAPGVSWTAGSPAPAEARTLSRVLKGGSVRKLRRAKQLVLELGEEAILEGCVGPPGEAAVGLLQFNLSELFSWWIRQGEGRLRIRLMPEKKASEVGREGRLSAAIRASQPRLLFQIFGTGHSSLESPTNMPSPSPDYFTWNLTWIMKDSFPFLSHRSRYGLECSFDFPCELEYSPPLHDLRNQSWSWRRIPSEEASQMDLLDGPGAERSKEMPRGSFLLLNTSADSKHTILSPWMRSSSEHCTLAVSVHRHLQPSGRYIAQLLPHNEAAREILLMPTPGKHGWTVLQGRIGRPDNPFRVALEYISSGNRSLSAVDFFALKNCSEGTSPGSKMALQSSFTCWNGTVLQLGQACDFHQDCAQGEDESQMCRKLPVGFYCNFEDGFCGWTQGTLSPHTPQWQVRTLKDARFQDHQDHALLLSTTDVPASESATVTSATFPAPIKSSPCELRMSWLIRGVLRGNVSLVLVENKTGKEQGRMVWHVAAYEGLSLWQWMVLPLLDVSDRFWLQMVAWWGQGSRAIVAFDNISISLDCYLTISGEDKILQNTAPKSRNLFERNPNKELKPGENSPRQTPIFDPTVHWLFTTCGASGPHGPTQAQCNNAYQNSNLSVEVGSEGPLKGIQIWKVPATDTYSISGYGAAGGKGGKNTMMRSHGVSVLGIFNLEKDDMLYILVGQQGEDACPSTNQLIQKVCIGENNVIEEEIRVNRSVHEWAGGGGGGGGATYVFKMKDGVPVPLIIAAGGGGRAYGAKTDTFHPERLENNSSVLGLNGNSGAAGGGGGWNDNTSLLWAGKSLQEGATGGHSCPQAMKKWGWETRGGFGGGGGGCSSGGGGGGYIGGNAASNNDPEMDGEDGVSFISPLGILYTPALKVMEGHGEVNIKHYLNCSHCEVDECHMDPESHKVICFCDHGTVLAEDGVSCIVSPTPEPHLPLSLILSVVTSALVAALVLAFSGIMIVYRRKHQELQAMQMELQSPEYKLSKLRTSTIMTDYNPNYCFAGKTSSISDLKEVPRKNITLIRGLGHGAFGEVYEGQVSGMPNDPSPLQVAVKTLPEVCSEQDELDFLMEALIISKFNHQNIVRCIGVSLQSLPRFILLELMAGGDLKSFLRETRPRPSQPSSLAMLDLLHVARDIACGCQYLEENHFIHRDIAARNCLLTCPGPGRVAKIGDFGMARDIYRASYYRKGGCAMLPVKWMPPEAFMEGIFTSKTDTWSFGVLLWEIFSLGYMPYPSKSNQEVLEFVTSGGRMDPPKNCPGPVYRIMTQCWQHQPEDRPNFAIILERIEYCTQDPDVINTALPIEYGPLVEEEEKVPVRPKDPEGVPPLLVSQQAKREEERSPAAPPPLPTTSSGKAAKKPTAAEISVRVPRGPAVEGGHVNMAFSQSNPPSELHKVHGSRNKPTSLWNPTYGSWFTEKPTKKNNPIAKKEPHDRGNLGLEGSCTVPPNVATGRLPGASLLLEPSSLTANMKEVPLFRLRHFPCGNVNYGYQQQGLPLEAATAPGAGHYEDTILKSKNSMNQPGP

MDA-MB134 = assay: CellTiterblue viability, 72 hr, MDA-MB134; format: cell-based; details: MDA-MB134 cells
Description: as §1

phospho-FGFR2 = target: T8, phospho-FGFR2 (Homo sapiens, UniProt P21802); assay: phospho-FGFR ELISA on Kato III cells; format: cell-based; details: read-out: EC50 (nM) P-FGFR2, Kato III cells
T8 construct: endogenous in cells; host or cells: Kato III cells
Description: For the phospho-FGFR, the following assay Protocol was used. 25,000 cells are seeded in 90 μl/well in 96-well microplates, which are then placed in a humidified CO2 incubator at 37° C. overnight. 96-well ELISA plates (Mesoscale Discovery) are coated with capture antibody (R&D Systems Duo-Set) at 4 μg/ml, 30 μl/well. The next day, 10 μl/well of 10× concentrated drug is added and the plates are returned to the incubator for […]. ELISA plates are washed using an automated plate washer (BioTek Instruments). After 30 min, cells are inverted and gently tapped to remove excess medium, and immediately placed on ice. 30 μl mPer cell lysis reagent (Thermo Scientific) with protease and phosphatase inhibitors is added/well. After 15 min on ice, lysates are mixed and 30 μl transferred to the ELISA plate. Plates are incubated for 2 hr, washed, and 30 μl/well detection antibody is added. After 1 hr, plates are washed and 30 μl “SulfoTag” (MesoScale Discovery) detection reagent is added. After 1 hr, plates are washed and 150 μl/well read solution is added. Electrochemiluminescence is determined on the Mesoscale Discovery Sector Imager 2000. Data are analyzed using Excel (Microsoft), and EC50 values are determined using Prism (Graphpad).

| inhibition at 1 µM (Tie2) [%] | inhibition at 1 µM (Ret kinase) [%] | inhibition at 1 µM (c-Src kinase) [%] | inhibition at 1 µM (Abl kinase) [%] | inhibition at 1 µM (KDR kinase) [%] | inhibition at 1 µM (FGFR1 kinase) [%] | inhibition at 1 µM (Alk kinase) [%] | GI50 (MDA-MB134) [nM] | EC50 (phospho-FGFR2) [nM] | Compound | GI50 (Kato III) [nM] | GI50 (RT112) [nM] | GI50 (AN3_CA) [nM] | GI50 (KG1a) [nM] |
| --- | --- | --- | --- | --- | --- | --- | --- | --- | --- | --- | --- | --- | --- |
| 82 | 79 | 78 | 84 | 97 | 100 | 32 | – | 36 | Cc1cc2c(F)c(Oc3cc(Nc4ccc(N5CCN(C)CC5)cn4)ncn3)ccc2[nH]1 [Example 15] | 290 | > 100 | 332 | > 100 |
| 18 | 25 | 9 | 19 | 96 | 98 | 15 | – | > 100 | COc1cc(CCc2cc(Nc3cc(Oc4ccc5[nH]c(C)cc5c4F)ncn3)n[nH]2)cc(OC)c1 [Example 22] | 229 | > 100 | > 500 | > 100 |
| 0 | -11 | 11 | 7 | 95 | 96 | 69 | – | > 100 | CCN1CCN(c2ccc(Nc3ncnc(Oc4ccc5[nH]c(C)cc5c4F)c3F)cc2)CC1 [Example 25] | > 500 | > 100 | > 500 | > 100 |

The next lines start with the compound.

| Compound | inhibition at 1 µM (Tie2) [%] | inhibition at 1 µM (Ret kinase) [%] | inhibition at 1 µM (c-Src kinase) [%] | inhibition at 1 µM (Abl kinase) [%] | inhibition at 1 µM (KDR kinase) [%] | inhibition at 1 µM (FGFR1 kinase) [%] | inhibition at 1 µM (Alk kinase) [%] | GI50 (MDA-MB134) [nM] | EC50 (phospho-FGFR2) [nM] | GI50 (Kato III) [nM] | GI50 (RT112) [nM] | GI50 (AN3_CA) [nM] | GI50 (KG1a) [nM] |
| --- | --- | --- | --- | --- | --- | --- | --- | --- | --- | --- | --- | --- | --- |
| Cc1cc2c(F)c(Oc3ncnc(Nc4cc(C5CC5)n[nH]4)c3F)ccc2[nH]1 [Compound 32, N-(3-cyclopropyl-1H-pyrazol-5-yl)-5-fluoro-6-((4-fluoro-2-methyl-1H-indol-5-yl)oxy) pyrimidin-4-amine] | -9 | -33 | -7 | 0 | 54 | 40 | -21 | 138 | > 500 | > 500 | > 500 | > 500 | > 500 |
| CCN1CCN(c2ccc(Nc3cc(Oc4cc(F)c5[nH]c(C)cc5c4F)ncn3)cc2)CC1 [Compound 49] | 69 | 53 | 74 | 68 | 96 | 99 | 69 | 56 | 75 | 207 | > 500 | > 500 | 60 |
| CCN1CCN(c2ccc(Nc3ncnc(Oc4ccc5[nH]c(C)cc5c4F)c3C#N)cc2)CC1 [Compound 53] | 5 | -25 | 10 | 11 | 98 | 100 | 49 | 5 | 18 | 34 | > 500 | > 500 | 10 |
| Cc1cc2c(F)c(Oc3cc(Nc4cc(-c5ccccn5)[nH]n4)ncn3)ccc2[nH]1 [Example 6] | 59 | 78 | 47 | 62 | 97 | 95 | 6 | – | > 100 | > 500 | > 100 | 573 | > 100 |
| Cc1cc2c(F)c(Oc3cc(N4CCN(c5ccc(N)cc5F)CC4)ncn3)ccc2[nH]1 [Example 10] | -12 | -19 | 8 | 13 | 20 | -4 | 40 | – | > 100 | 142 | > 100 | 33 | > 100 |
| Cc1cc2c(F)c(Oc3cc(Nc4ccc(N5CCNCC5)cc4)ncn3)ccc2[nH]1 [Example 11] | 92 | 67 | 59 | 60 | 96 | 99 | 70 | – | 96 | > 500 | > 100 | > 500 | > 100 |
| Cc1cc2c(F)c(Oc3cc(Nc4ccc(N5CCN(C)CC5)c(F)c4)ncn3)ccc2[nH]1 [Example 14] | 31 | 48 | 35 | 32 | 97 | 97 | 53 | – | > 100 | > 500 | > 100 | 483 | > 100 |
